The values that follow come from PMC6039382 (Journal of Cardiovascular Pharmacology, 2018).

Assay [1] deals with PPAR-α. The following applies: cited from earlier work.
In assay [2] the target is T1, mouse PPAR-α (Mus musculus, UniProt P23204).
T1 sequence (P23204 239-466 limits assumed): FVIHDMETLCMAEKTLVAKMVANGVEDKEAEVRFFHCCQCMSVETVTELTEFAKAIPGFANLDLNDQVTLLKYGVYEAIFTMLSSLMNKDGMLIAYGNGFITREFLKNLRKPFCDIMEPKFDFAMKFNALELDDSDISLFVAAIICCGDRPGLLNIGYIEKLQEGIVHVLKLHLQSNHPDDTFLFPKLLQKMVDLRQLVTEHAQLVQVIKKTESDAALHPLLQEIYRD
In words: PPAR-α agonist transactivation assay, Gal4-LBD luciferase reporter cells. The following applies: gemcabene up to 300 μM. Format: cell-based.

Assay [3] has as its target T2, human PPAR-α (Homo sapiens, UniProt Q07869).
T2 sequence (Q07869 239-466 limits assumed): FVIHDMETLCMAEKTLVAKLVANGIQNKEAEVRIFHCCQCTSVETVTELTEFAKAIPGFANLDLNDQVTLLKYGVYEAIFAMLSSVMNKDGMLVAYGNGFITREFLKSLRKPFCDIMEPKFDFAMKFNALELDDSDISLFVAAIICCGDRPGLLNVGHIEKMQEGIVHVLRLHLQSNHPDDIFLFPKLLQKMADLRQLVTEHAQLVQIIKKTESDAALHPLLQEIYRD
The assay is described as above. Format: cell-based.

Assay [4] concerns the target T3, human PPAR-γ (Homo sapiens, UniProt P37231).
T3 sequence (P37231 238-503 limits assumed): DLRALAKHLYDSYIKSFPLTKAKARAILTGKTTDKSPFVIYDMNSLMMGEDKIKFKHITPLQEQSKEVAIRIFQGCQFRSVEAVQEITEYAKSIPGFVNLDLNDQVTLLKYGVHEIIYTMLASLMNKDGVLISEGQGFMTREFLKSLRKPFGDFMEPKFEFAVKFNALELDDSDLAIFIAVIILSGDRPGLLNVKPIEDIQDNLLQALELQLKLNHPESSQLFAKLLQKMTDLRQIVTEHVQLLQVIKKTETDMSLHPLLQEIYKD
The experiment in a line: PPAR-γ agonist transactivation assay, Gal4-LBD luciferase reporter cells.

Assay [5] has as its target T4, rat PPAR-α (Rattus norvegicus, UniProt P37230).
T4 sequence (P37230 239-466 limits assumed): T1 sequence (P23204 239-466 limits assumed) with D27N
In words: PPAR-α agonist transactivation assay, Gal4-LBD luciferase reporter cells. Format: cell-based. The following applies: gemcabene up to 300 μM. (A reporter such as luciferase makes a cellular process visible.)

In assay [6] the test system is PPAR-γ. The experiment in a line: PPAR-γ agonist transactivation, statements made jointly for all species. Format: cell-based, human, mouse, rat.

Positions count from the first letter of the chain named. Entries after “also recorded” stand apart in the source; their conditions may differ.

Consider `Cc1ccc(C)c(OCCCC(C)(C)C(=O)O)c1` [Gemfibrozil], for which the “IC50/EC50 [Literature]” value in assay [1] was 193 µM.

With `COc1ccc(OC(=O)N(CC(=O)O)Cc2ccc(OCCc3nc(-c4ccccc4)oc3C)cc2)cc1` [Muraglitazar], the “agonist activity (in words)” value was “not against mouse and rat PPAR-α” in assay [2]; “agonist activity” in assay [3] (gemcabene up to 300 μM); “agonist activity” in assay [4]; “not against mouse and rat PPAR-α” in assay [5]. This compound gave a maximal activation in assay [3] of 19 fold. This compound came in with an activation in assay [4] (maximal) of 16 fold.

As for `CN(CCOc1ccc(CC2SC(=O)NC2=O)cc1)c1ccccn1` (centres unmarked) [Rosiglitazone], in assay [6], the “Comments / agonist activity in words” value is listed as “strong activation; also recorded: potent agonist activity”.
